Test results taken from patent publication US10633338B2, “Binding Function 3 (BF3) site compounds as therapeutics and methods for their use” (THE UNIVERSITY OF BRITISH COLUMBIA, priority 2014, dated 2020).

biological target: T1, androgen receptor (AR) (Homo sapiens, UniProt P10275, T878A); assay: eGFP cellular AR transcription assay; type: cell-based; conditions: LN-ARR2PB-eGFP LNCaP cells, 0.1 nM R1881, 3 days, 0-100 μM compound; read-out: IC50 (eGFP)
T1 construct: stably transfected eGFP-expressing LNCaP human prostate cancer cells (LN-ARR2PB-eGFP) containing an androgen responsive probasin-derived promoter; endogenous in cells; host or cells: LNCaP (LN-ARR2PB-eGFP)
T1 sequence (P10275 1-920 T878A): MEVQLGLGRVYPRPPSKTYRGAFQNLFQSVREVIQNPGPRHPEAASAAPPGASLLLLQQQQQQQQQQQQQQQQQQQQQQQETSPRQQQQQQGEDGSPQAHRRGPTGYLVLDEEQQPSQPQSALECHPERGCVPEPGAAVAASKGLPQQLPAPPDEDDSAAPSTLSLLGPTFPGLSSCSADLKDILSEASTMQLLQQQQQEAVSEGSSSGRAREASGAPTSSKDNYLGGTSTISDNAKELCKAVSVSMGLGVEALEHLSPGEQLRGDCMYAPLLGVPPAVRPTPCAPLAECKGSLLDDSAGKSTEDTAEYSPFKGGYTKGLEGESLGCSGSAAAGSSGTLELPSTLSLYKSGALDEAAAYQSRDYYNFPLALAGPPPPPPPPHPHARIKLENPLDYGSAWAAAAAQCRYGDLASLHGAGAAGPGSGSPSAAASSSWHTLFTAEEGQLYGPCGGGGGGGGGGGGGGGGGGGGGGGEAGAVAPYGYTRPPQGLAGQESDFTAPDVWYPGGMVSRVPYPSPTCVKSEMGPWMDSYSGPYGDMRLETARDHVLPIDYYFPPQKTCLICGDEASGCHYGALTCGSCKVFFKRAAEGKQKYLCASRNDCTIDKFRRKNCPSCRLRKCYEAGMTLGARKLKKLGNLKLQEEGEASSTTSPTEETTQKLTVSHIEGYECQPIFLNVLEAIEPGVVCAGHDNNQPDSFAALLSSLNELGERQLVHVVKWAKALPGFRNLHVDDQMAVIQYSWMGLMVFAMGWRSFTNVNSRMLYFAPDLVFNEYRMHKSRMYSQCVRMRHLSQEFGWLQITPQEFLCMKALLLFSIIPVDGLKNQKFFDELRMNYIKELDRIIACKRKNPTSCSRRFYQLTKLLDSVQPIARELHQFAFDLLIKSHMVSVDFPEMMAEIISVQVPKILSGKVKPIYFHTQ
Procedure: After 5 days, the cells were plated into a 96-well plate (35,000 cells/well) with 0.1 nM of the synthetic androgen R1881 and increasing concentrations (0-100 μM) of compound.
After 5 days, the cells were plated into a 96-well plate (35,000 cells/well) with 0.1 nM R1881 and increasing concentrations (0-100 μM) of compound.
In this assay, the expression of eGFP is under the control of an androgen responsive probasin-derived promoter and can quantify AR transcriptional activity.

CC1(C)c2ccccc2NC1c1c[nH]c2ccc(N)cc12 (stereo not drawn) [13 538] and CC1(C)c2ccccc2NC1c1c[nH]c2cnccc12 (stereo not drawn) [13 561] are within 1.5-fold of each other in IC50: 7.7 µM for the first, 10.7 µM for the second.

Oc1ccc2c(C3Nc4ccccc4C34CCCCC4)c[nH]c2c1 (stereo not drawn) [13 551] and c1ccc(COc2ccc3c(C4Nc5ccccc5C45CCCCC5)c[nH]c3c2)cc1 (stereo not drawn) [13 550] are within 1.5-fold of each other in IC50: 15.5 µM for the first, 11.8 µM for the second.

Going from CC1(C)c2ccccc2NC1c1c[nH]c2cc(OCc3ccccc3)ccc12 (stereo not drawn) [13 544] to c1ccc(COc2ccc3c(-c4ccc5ccccc5n4)c[nH]c3c2)cc1 [13 589], the IC50 falls from 11.4 µM to 5.3 µM (2.2-fold).

CC1(C)c2ccccc2NC1c1c[nH]c2ncccc12 (stereo not drawn) [13 560] and CC1(C)c2ccccc2NC1c1c[nH]c2c(CO)cccc12 (stereo not drawn) [13 558] are within 1.5-fold of each other in IC50: 2.3 µM for the first, 1.6 µM for the second.

First: Cn1cc(-c2ccc3ccccc3n2)c2ccccc21 [13 571]
Second: Cc1[nH]c2ccccc2c1-c1ccc2ccccc2n1 [13 570]
The IC50 of the first is 18-fold lower: 1.1 µM for the first, 20 µM for the second. The first is the more potent here.

First: Fc1cccc2c(-c3ccc4ccccc4n3)c[nH]c12 [13 569]
Second: FC(F)(F)c1ccc2c(-c3ccc4ccccc4n3)c[nH]c2c1 [13 580]
The IC50 of the first is 1.8-fold lower: 1.6 µM for the first, 2.9 µM for the second.

c1ccc2c(c1)N=C(c1c[nH]c3ncccc13)C21CCCCC1 [13 559] and c1cncc(-c2c[nH]c3cnccc23)c1 [13 581] are within 1.5-fold of each other in IC50: 6.6 µM for the first, 4.9 µM for the second.

Going from CC1(C)c2cc(Br)ccc2NC1c1c[nH]c2cc(O)ccc12 (stereo not drawn) [13 542] to c1ccc2nc(-n3ncc4ccccc43)ccc2c1 [13 572], the IC50 falls from 5.7 µM to 0.7 µM (8.1-fold). The second is the more potent here.

same assay, conditions: LN-ARR2PBeGFP LNCaP cells, 0.1 nM R1881, 3 days incubation

With CC1(C)c2ccccc2NC1c1c[nH]c2c(F)cccc12 (stereo not drawn) [Compound 13555] the “eGFP IC50” value was “Inactive”.
For CC1(C)c2ccccc2NC1c1c[nH]c2c(C(=O)O)cccc12 (stereo not drawn) [Compound 13557], the “eGFP IC50” value was “Inactive”.

same assay, conditions: LN-ARR2PBeGFP LNCaP cells, 0.1 nM R1881, 3 days incubation; read-out: eGFP IC50

Going from Brc1ccc2[nH]c(-c3nc4ccccc4s3)cc2c1 [Compound 13540] to O=C(Nc1nc2ccc(Br)cc2s1)c1ccccc1O [Compound 9039], the IC50 rises from 2.5 µM to > 200 µM.

Compared with Cc1ccc(/N=N/c2c[nH]c3ccccc23)cc1 [Compound 13257], c1ccc(-c2ccccc2/N=N/c2c[nH]c3ccccc23)cc1 [Compound 13258] is 1.6-fold higher in IC50: 4.2 µM for the first, 6.8 µM for the second. The first is the more potent here.

First: Fc1cc2[nH]cc(-c3ccc4cccc(F)c4n3)c2cc1F [Compound 13651]
Second: Cc1c(F)ccc2c(-c3ccc4cccc(Br)c4n3)c[nH]c12 [Compound 13787]
The IC50 of the first is 2.1-fold higher: 0.404 µM for the first, 0.19 µM for the second.

Cc1ccc(F)c2c(-c3ccc4ccccc4n3)c[nH]c12 [Compound 13650] and Fc1cccc2c(-c3ccc4ccccc4n3)c[nH]c12 [Compound 13569] are within 1.5-fold of each other in IC50: 1.63 µM for the first, 1.6 µM for the second.

FC(F)(F)c1ccc2c(-c3ccc4ccccc4n3)c[nH]c2c1 [Compound 13580] and Cc1ccc2c(-c3ccc4ccccc4n3)c[nH]c2c1 [Compound 13574] are within 1.5-fold of each other in IC50: 2.9 µM for the first, 2.57 µM for the second.

First: O=C(Nc1cccc(Br)c1O)c1cc2ccc(Br)cc2[nH]1 [Compound 9037]
Second: O=C(Nc1n[nH]c2cc(Br)ccc12)c1cc(Br)ccc1O [Compound 9027]
The IC50 of the first is 1.9-fold lower: 4.09 µM for the first, 7.72 µM for the second. The first is the more potent here.

Going from c1ccc2c(c1)N=C(c1c[nH]c3cnccc13)C21CCCCC1 [Compound 13559] to Oc1ccc2c(C3Nc4ccccc4C34CCCCC4)c[nH]c2c1 (stereo not drawn) [Compound 13551], the IC50 rises from 6.6 µM to 15.5 µM (2.3-fold).

C(=C(c1ccccc1)c1ccccc1)c1c[nH]c2ccccc12 [Compound 13250] and c1ccc(COc2ccc3c(-c4ccc5ccccc5n4)c[nH]c3c2)cc1 [Compound 13589] are within 1.5-fold of each other in IC50: 4.7 µM for the first, 5.3 µM for the second.

Going from Cc1[nH]c2ccccc2c1-c1ccc2ccccc2n1 [Compound 13570] to Cn1cc(-c2ccc3ccccc3n2)c2ccccc21 [Compound 13571], the IC50 falls from 20 µM to 1.1 µM (18-fold). The second is the more potent here.

CC1(C)c2ccccc2NC1c1c[nH]c2cc(OCc3ccccc3)ccc12 (stereo not drawn) [Compound 13544] and c1ccc(COc2ccc3c(C4Nc5ccccc5C45CCCCC5)c[nH]c3c2)cc1 (stereo not drawn) [Compound 13550] are within 1.5-fold of each other in IC50: 11.4 µM for the first, 11.8 µM for the second.

Compared with CNC(=O)c1cccc2nc(-c3c[nH]c4c(N5CCOCC5)c(F)c(F)cc34)ccc12 [Compound 13775], CNC(=O)c1cccc2nc(-c3c[nH]c4c(F)cccc34)ccc12 [Compound 13713] is 100-fold lower in IC50: 3.7 µM for the first, 0.037 µM for the second.

First: Clc1ccc(Cl)c2c(-c3ccc4ccccc4n3)c[nH]c12 [Compound 13640]
Second: N#Cc1cccc2c(-c3ccc4cccc(Cl)c4n3)c[nH]c12 [Compound 13785]
The IC50 of the first is 350-fold higher: 12.7 µM for the first, 0.036 µM for the second. The second is the more potent here.

Brc1ccc2c(c1)NC(c1c[nH]c3ccc(Br)cc13)C2 (stereo not drawn) [Compound 13502] and Brc1ccc2c(c1)CC(c1c[nH]c3ccc(Br)cc13)N2 (stereo not drawn) [Compound 13503] are within 1.5-fold of each other in IC50: 4.1 µM for the first, 4.5 µM for the second.

Compared with O=C(Nc1ccc(-n2cnc3ccccc32)cc1)c1ccco1 [Compound 6054], O=c1[nH]c2ccccc2n1-c1nc2ccccc2[nH]1 [Compound 13214] is 1.5-fold lower in IC50: 3.4 µM for the first, 2.2 µM for the second. The second is the more potent here.

Compared with Brc1ccc2cc(CCc3cc4ccc(Br)cc4[nH]3)[nH]c2c1 [Compound 9043], CC1(C)c2cc(Br)ccc2NC1c1c[nH]c2ccc(Br)cc12 (stereo not drawn) [Compound 13512] is 2.4-fold higher in IC50: 2.5 µM for the first, 6 µM for the second. The first is the more potent here.

First: C[C@@H]1Cc2ccccc2N1c1nc2ccccc2o1 [Compound 13261]
Second: c1ccc2c(c1)CCN2c1nc2ccccc2o1 [Compound 13220]
The IC50 of the first is 3-fold higher: 2.1 µM for the first, 0.7 µM for the second.

Cn1cc(CCc2ccncc2)c2ccccc21 [Compound 13202] and Cn1cc(C2Nc3ccccc3C2(C)C)c2ccccc21 (stereo not drawn) [Compound 13516] are within 1.5-fold of each other in IC50: 2.5 µM for the first, 3.6 µM for the second.

Compared with Brc1ccc2nc(-c3c[nH]c4ccccc34)cn2c1 [Compound 13050], Cc1cccn2cc(-c3c[nH]c4ccccc34)nc12 [Compound 13216] is 3.5-fold lower in IC50: 9.72 µM for the first, 2.8 µM for the second.

CC1(C)c2cc(Br)ccc2NC1c1c[nH]c2cc(O)ccc12 (stereo not drawn) [Compound 13542] and CC1(C)c2ccccc2NC1c1c[nH]c2ccc(N)cc12 (stereo not drawn) [Compound 13538] are within 1.5-fold of each other in IC50: 5.7 µM for the first, 7.7 µM for the second.

Compared with O=C(Nc1nc2ccc(Br)cc2s1)c1ccc(Br)cc1O [Compound 9040], O=C(Nc1nc2cc(Br)ccc2s1)c1cc(Br)ccc1O [Compound 9028] is 3.9-fold lower in IC50: 39.1 µM for the first, 10 µM for the second. The second is the more potent here.

Compared with O=C(Nc1n[nH]c2ccc(Br)cc12)c1cc(Br)ccc1O [Compound 9026], O=C(/C=C/c1c[nH]c2cc(Br)ccc12)c1cc2ccccc2[nH]1 [Compound 9034] is 1.7-fold higher in IC50: 11.7 µM for the first, 20 µM for the second.

Going from O=Nn1cc(-c2cc3ccccc3n2N=O)c2ccccc21 [Compound 13206] to Cn1c(-c2c[nH]c3ccccc23)cc2ccccc21 [Compound 13505], the IC50 rises from 1.8 µM to 3.4 µM (1.9-fold). The first is the more potent here.

Going from N#Cc1cccc2c(-c3ccc4ccc(F)cc4n3)c[nH]c12 [Compound 13786] to Cc1cccc2c(-c3ccc4cc(F)ccc4n3)c[nH]c12 [Compound 13573], the IC50 rises from 0.013 µM to 0.56 µM (43-fold).

Compared with Clc1ccc(Nc2nc3ccccc3[nH]2)cc1Cl [Compound 13186], Clc1ccc(N/N=C2\CCc3ccccc32)cc1Cl [Compound 13215] is 2.5-fold lower in IC50: 5 µM for the first, 2 µM for the second. The second is the more potent here.

First: c1ccc2[nH]c(-c3n[nH]c4ccccc34)nc2c1 [Compound 13036]
Second: Cc1[nH]c2ccccc2c1SCc1ccccc1F [Compound 13224]
The IC50 of the first is 3.1-fold lower: 1.6 µM for the first, 5 µM for the second. The first is the more potent here.

First: N#Cc1cc(F)cc2c(-c3ccc4cccc(Cl)c4n3)c[nH]c12 [Compound 13732]
Second: Cc1cccc2c(-c3ccc4nccnc4n3)c[nH]c12 [Compound 13644]
The IC50 of the first is 7.1-fold lower: 0.42 µM for the first, 3 µM for the second.

Cc1ccc(/N=C/c2c[nH]c3ccccc23)cc1C [Compound 13310] and CC1(C)c2ccccc2NC1c1c[nH]c2cnccc12 (stereo not drawn) [Compound 13561] are within 1.5-fold of each other in IC50: 10.3 µM for the first, 10.7 µM for the second.

Compared with Cc1cccc2c(-c3ccc4c(CO)cccc4n3)c[nH]c12 [Compound 13680], Cc1cccc2c(-c3ccc4c(-c5cncs5)cccc4n3)c[nH]c12 [Compound 13782] is 7.3-fold lower in IC50: 0.8 µM for the first, 0.11 µM for the second. The second is the more potent here.

S=C(c1c[nH]c2ccccc12)N1CCOCC1 [Compound 13243] and Cc1cccc2c1CCN2c1nc2ccccc2o1 [Compound 13260] are within 1.5-fold of each other in IC50: 3.9 µM for the first, 2.7 µM for the second.

N#Cc1cn(CCCOc2ccccc2Cl)c2ccccc12 [Compound 13232] showed an IC50 of 10 µM.

same assay, conditions: eGFP IC50, LN-ARR2PBeGFP LNCaP cells, 0.1 nM R1881, 3 days incubation

Compound Oc1ccc(Cn2c(-c3ccc(O)cc3)nc3ccccc32)cc1 [Compound 13029] has an IC50 of 3.22 µM.
